Measurements reported in ChEMBL document CHEMBL5465560, “Selectivity Literature for EUbOPEN Chemogenomic Library” (2024).
One block for each compound: values may come before it.

Experiments:
[1] = biological target: T1, Ephrin type-B receptor 2 (Homo sapiens) (UniProt P29323); experiment: Selectivity interaction (KinomeScan (DiscoverX)) EUB0001049a EPHB2; details: at 1 µM
T1 sequence (whole entry): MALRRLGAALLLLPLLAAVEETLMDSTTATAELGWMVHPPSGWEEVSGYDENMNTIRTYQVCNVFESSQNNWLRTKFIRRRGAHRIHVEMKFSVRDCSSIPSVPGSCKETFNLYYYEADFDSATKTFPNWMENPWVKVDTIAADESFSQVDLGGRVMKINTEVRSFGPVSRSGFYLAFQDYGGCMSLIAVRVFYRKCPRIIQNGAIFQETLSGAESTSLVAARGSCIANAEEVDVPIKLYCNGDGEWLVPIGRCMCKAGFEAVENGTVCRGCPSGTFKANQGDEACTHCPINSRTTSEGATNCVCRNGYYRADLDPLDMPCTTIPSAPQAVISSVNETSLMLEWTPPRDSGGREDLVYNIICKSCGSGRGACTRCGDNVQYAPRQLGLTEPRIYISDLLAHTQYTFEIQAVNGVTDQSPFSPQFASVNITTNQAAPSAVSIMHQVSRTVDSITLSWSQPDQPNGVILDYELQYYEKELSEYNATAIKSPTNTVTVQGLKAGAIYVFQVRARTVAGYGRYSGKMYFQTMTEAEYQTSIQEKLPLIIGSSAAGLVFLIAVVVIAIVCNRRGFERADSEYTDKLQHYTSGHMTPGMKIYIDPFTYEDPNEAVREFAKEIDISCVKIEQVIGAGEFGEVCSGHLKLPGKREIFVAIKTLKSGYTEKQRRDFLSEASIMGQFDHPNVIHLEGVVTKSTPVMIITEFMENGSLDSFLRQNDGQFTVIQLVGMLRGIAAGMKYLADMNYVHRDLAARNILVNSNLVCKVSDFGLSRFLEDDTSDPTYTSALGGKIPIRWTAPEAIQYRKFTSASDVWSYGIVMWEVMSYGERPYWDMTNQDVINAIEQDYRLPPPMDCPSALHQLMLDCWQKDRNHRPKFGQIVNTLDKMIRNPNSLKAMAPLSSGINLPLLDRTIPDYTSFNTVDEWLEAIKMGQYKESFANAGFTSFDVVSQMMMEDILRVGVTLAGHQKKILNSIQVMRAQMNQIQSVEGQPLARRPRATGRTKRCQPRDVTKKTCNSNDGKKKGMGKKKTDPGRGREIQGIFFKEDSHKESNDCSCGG

[2] = biological target: Ribosomal protein S6 kinase alpha-3 (Homo sapiens, UniProt P51812); experiment: Selectivity interaction (ActivX KiNativ screen (kinase selectivity in THP-1 cell lysates)) EUB0000639a RPS6KA3; type: subcellular; details: lysate, at 0.04 µM
[3] = biological target: STE20/SPS1-related proline-alanine-rich protein kinase (Homo sapiens) (UniProt Q9UEW8); experiment: Selectivity interaction (ActivX KiNativ screen (kinase selectivity in THP-1 cell lysates)) EUB0000639a STK39; type: subcellular; details: lysate
[4] = biological target: Histone-lysine N-methyltransferase 2C (Homo sapiens) (UniProt Q8NEZ4); experiment: Selectivity interaction (Methyltransferase screen (radiometric assays, panel of 8 PRMTs, 21 protein lysine methyltransferases, 3 DNA methyltransferases, and one RNA methyltransferase)) EUB0000271b MLL3
[5] = biological target: RAF proto-oncogene serine/threonine-protein kinase (Homo sapiens) (UniProt P04049); details: at 10 µM
[6] = biological target: STE20-like serine/threonine-protein kinase (Homo sapiens, UniProt Q9H2G2); experiment: Selectivity interaction (KinomeScan (DiscoverX)) EUB0000229b SLK; details: at 10 µM
[7] = biological target: Cyclin-dependent kinase 18 (Homo sapiens) (UniProt Q07002); experiment: Selectivity interaction (KinomeScan (DiscoverX)) EUB0000045b CDK18
[8] = biological target: T2, Bone morphogenetic protein receptor type-2 (Homo sapiens) (UniProt Q13873); experiment: Selectivity interaction (KinomeScan (DiscoverX)) EUB0001619a BMPR2; details: at 1 µM
T2 sequence (whole entry): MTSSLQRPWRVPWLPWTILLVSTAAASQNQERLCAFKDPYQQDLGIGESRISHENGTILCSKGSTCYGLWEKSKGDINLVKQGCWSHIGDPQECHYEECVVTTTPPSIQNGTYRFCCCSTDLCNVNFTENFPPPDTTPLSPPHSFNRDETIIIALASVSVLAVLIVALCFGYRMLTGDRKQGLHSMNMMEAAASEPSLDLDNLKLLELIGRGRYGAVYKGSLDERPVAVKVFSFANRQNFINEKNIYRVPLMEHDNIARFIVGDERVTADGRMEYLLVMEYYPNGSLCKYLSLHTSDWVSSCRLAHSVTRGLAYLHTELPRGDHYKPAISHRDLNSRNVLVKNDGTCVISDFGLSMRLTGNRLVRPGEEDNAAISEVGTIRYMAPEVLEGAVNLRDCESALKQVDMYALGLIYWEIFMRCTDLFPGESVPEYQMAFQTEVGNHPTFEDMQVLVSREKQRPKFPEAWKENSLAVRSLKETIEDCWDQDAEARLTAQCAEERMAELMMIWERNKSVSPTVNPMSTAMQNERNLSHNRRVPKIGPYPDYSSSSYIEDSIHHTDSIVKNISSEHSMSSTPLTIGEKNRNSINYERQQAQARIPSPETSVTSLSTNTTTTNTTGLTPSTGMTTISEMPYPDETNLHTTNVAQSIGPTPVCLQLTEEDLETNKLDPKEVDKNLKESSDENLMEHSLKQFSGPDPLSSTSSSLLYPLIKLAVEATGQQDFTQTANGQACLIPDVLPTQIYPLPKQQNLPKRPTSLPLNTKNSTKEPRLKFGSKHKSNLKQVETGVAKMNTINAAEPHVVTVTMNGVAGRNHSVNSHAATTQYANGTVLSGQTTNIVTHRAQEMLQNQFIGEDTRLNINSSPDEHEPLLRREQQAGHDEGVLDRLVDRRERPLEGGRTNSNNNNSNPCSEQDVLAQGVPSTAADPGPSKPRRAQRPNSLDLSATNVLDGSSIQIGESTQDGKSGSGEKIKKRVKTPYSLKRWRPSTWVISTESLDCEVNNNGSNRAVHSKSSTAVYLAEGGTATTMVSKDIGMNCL

[9] = biological target: 5-hydroxytryptamine receptor 2A (Homo sapiens, UniProt P28223); experiment: Selectivity interaction (Panel of kinases, GPCRs, ion channels and transporters (enzymatic assay)) EUB0000223bCl HTR2A
Sequence of 5-hydroxytryptamine receptor 2A (P28223 whole entry): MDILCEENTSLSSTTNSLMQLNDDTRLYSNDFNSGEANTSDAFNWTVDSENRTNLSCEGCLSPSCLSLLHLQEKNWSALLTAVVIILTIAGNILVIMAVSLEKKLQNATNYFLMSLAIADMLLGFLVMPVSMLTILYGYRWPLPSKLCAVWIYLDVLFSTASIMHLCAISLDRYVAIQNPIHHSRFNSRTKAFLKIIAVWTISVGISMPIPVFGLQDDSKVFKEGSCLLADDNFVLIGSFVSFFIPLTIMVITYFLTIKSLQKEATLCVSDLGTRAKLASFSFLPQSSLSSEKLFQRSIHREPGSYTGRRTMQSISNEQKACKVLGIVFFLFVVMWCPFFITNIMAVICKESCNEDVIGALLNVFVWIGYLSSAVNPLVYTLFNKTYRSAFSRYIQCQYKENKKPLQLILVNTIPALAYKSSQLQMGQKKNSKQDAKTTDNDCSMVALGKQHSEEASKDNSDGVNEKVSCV

Sequence of Cyclin-dependent kinase 18 (Homo sapiens) (Q07002 whole entry): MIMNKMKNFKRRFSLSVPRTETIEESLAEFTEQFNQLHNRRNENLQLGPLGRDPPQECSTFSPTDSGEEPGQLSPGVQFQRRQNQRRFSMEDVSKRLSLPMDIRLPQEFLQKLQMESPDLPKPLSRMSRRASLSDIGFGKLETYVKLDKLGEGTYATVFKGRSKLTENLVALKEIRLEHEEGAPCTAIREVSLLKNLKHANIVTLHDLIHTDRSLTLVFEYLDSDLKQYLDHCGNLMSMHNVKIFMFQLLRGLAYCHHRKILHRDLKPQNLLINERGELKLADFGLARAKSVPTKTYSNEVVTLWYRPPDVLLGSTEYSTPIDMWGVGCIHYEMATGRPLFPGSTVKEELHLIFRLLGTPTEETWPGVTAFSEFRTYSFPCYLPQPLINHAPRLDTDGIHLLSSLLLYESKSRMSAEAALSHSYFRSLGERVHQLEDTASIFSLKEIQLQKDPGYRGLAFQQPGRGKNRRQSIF
Sequence of RAF proto-oncogene serine/threonine-protein kinase (Homo sapiens) (P04049 whole entry): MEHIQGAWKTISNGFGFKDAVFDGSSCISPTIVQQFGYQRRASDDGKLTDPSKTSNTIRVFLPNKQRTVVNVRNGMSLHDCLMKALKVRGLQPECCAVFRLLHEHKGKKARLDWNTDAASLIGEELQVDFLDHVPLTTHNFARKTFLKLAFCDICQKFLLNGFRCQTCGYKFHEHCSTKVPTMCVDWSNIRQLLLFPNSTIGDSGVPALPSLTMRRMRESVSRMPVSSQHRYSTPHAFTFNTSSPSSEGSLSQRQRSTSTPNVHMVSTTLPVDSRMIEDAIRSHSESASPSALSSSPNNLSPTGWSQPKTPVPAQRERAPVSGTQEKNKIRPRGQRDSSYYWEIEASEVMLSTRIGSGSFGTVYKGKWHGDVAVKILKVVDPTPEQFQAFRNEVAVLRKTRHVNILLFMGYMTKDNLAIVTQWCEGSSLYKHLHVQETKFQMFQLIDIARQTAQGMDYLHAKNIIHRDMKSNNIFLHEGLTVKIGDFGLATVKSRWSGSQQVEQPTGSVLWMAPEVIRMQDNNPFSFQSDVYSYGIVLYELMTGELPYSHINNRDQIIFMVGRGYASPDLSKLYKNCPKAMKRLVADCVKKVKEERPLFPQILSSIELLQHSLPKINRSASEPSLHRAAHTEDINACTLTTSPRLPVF
Sequence of Ribosomal protein S6 kinase alpha-3 (P51812 whole entry): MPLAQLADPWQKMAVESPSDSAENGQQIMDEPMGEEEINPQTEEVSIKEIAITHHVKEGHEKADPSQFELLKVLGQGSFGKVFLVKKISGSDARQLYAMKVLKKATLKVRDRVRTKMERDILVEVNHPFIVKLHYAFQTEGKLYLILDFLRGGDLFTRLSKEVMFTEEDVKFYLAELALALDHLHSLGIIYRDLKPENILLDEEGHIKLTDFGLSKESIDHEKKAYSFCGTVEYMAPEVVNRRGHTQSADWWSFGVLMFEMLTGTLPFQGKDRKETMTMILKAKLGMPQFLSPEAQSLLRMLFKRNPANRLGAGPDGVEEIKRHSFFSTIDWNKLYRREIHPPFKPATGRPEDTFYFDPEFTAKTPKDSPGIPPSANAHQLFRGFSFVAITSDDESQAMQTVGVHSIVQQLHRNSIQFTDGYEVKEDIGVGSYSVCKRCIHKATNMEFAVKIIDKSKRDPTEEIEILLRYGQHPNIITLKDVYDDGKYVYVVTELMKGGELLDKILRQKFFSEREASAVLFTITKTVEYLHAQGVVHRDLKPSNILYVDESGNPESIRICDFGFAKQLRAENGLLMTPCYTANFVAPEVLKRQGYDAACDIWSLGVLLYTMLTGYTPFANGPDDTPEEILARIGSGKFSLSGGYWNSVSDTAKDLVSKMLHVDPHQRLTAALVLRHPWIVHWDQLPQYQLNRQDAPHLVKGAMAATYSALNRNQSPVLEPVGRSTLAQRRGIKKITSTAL
Sequence of STE20-like serine/threonine-protein kinase (Q9H2G2 whole entry, looked up): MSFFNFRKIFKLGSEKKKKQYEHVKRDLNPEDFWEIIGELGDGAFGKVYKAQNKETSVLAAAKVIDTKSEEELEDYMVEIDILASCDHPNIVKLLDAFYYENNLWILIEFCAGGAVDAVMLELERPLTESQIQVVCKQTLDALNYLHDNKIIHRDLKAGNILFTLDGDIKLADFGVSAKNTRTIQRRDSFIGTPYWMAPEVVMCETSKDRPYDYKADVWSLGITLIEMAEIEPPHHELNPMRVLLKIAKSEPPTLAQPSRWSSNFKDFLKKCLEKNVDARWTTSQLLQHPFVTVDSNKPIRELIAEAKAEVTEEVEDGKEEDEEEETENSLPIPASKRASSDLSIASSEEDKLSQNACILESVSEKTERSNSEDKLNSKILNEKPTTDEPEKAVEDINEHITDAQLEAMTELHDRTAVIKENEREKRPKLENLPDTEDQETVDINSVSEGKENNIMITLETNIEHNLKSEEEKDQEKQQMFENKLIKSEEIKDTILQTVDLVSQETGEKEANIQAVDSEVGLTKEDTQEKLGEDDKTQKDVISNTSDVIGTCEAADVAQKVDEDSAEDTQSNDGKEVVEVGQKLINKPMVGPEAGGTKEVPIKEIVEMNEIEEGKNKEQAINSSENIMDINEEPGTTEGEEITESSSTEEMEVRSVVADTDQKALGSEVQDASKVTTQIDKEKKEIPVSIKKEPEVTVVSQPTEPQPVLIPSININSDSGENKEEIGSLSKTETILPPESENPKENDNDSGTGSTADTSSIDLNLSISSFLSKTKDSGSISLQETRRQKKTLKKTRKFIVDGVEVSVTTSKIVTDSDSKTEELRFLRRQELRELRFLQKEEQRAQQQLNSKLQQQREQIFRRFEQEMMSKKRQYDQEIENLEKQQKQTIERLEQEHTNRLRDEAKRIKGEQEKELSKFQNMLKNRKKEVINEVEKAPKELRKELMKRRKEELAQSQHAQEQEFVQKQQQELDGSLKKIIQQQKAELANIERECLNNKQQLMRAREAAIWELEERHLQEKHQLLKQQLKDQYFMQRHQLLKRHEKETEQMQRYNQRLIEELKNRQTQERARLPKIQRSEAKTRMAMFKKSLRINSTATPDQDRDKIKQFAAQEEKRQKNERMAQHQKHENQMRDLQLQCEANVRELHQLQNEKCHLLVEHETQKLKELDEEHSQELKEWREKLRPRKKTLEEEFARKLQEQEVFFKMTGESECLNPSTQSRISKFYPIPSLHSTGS

SMILES: COc1cc(Nc2nc(C)cc(-c3cnn4nc(OC)ccc34)n2)cc(C(F)(F)F)c1
- % of control [1]: 92%

- % of inhibition [2]: 2.8%
- % of inhibition ([3]; at 0.01 µM): 3.8%
- % of inhibition ([3]; at 0.04 µM): -1.3%
- % of inhibition ([3]; at 0.2 µM): 2.2%
- % of inhibition ([3]; at 1 µM): -9.4%
- % of inhibition ([3]; at 5 µM): 1.5%
SMILES: CC[C@@H]1[C@H](F)C(=O)N[C@@H]1COc1nccc2cc(C(N)=O)c(OC)cc12 [ZIMLOVISERTIB]

SMILES: Cc1cc(C)cc([C@@H]2c3cc(C)ccc3NC(=O)CN2C(=O)c2ccc(Br)s2)c1
- % of activity ([4]; at 1 µM): 104%
- % of activity ([4]; at 10 µM): 97%

SMILES: COCC(=O)NC/C=C/c1ccc2ncnc(Nc3ccc(Oc4ccc(C)nc4)c(C)c3)c2c1 [CP-724714]
- % of control [5]: 100%

SMILES: COc1cc(N(C)c2ccnc3ccc(C(F)(F)F)cc23)cc(OC)c1OC
- % binding [6]: 31%

SMILES: C=CC(=O)Nc1cc(-n2c(=O)ccc3cnc4ccc(-c5ccc(NS(C)(=O)=O)cc5)cc4c32)ccc1C
- % of control ([7]; at 1 µM): 83%
- % of control ([7]; at 10 µM): 88%

SMILES: N#Cc1cccc(-c2c[nH]c3ncnc(N4CCOCC4)c23)c1
- % of control [8]: 80%

SMILES: COc1cc(C(=O)N2CC[C@@H](O)[C@@H](N)C2)cc2nc(-c3cc4ccccc4n3CC3CC3)n(C)c12
- pXC50 [9]: < 4.4 M
